In ChEMBL document CHEMBL1201862, “PubChem BioAssay data set” (2004):
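Interpolation was linear, between the two tested concentrations surrounding the appropriate level; five concentrations were tested over 48 hours in 96-well plates. GI50: concentration for 50% inhibition of growth.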 Activity calls are given as the source filed them. Rule as the data show it: active = GI50 up to about 1.1 µM and inactive = higher.

Experiments:
Assay in all cases: growth of human tumour cells (NCI), 48 h
786-0 = test system: 786-0
A549 = test system: A549
ACHN = test system: ACHN
CAKI-1 = test system: CAKI-1
COLO 205 = test system: COLO 205
DU-145 = test system: DU-145
EKVX = test system: EKVX
HCC 2998 = test system: HCC 2998
HCT-116 = test system: HCT-116
HCT-15 = test system: HCT-15
HL-60 = test system: HL-60
HOP-62 = test system: HOP-62
HOP-92 = test system: HOP-92
HT-29 = test system: HT-29
Hs-578T = test system: Hs-578T
K562 = test system: K562
KM12 = test system: KM12
LOX IMVI = test system: LOX IMVI
M14 = test system: M14
MCF7 = test system: MCF7
MDA-MB-435 = test system: MDA-MB-435
Malme-3M = test system: Malme-3M
NCI-H226 = test system: NCI-H226
NCI-H23 = test system: NCI-H23
NCI-H460 = test system: NCI-H460
NCI-H522 = test system: NCI-H522
NCI/ADR-RES = test system: NCI/ADR-RES
OVCAR-3 = test system: OVCAR-3
OVCAR-4 = test system: OVCAR-4
OVCAR-5 = test system: OVCAR-5
OVCAR-8 = test system: OVCAR-8
PC-3 = test system: PC-3
RPMI-8226 = test system: RPMI-8226
SF-268 = test system: SF-268
SF-295 = test system: SF-295
SF-539 = test system: SF-539
SK-MEL-28 = test system: SK-MEL-28
SK-MEL-2 = test system: SK-MEL-2
SK-OV-3 = test system: SK-OV-3
SN12C = test system: SN12C
SNB-19 = test system: SNB-19
SNB-75 = test system: SNB-75
SR = test system: SR
SW-620 = test system: SW-620
T47D = test system: T47D
TK-10 = test system: TK-10
U-251 = test system: U-251
UACC-257 = test system: UACC-257
UACC-62 = test system: UACC-62
A498 = test system: A498
CCRF-CEM = test system: CCRF-CEM
IGROV-1 = test system: IGROV-1
MDA-MB-231 = test system: MDA-MB-231
MDA-N = test system: MDA-N
MOLT-4 = test system: MOLT-4
RXF 393 = test system: RXF 393
SK-MEL-5 = test system: SK-MEL-5
UO-31 = test system: UO-31

For O=C(O)CCC1(CCC(=O)O)CCCCCCCCC(CCC(=O)O)(CCC(=O)O)C(=O)C1=O, the GI50 (786-0) was > 100 µM (inactive), the GI50 (A549) was > 100 µM (inactive) and the GI50 (ACHN) was > 100 µM (inactive). For the same compound, the GI50 (CAKI-1) was > 100 µM (inactive), the GI50 (COLO 205) was > 100 µM (inactive) and the GI50 (DU-145) was > 100 µM (inactive). For the same compound, the GI50 (EKVX) was > 100 µM (inactive), the GI50 (HCC 2998) was > 100 µM (inactive) and the GI50 (HCT-116) was > 100 µM (inactive). The GI50 (HCT-15) was greater than 100 µM, the GI50 (HL-60) was > 100 µM (inactive) and the GI50 (HOP-62) was > 100 µM (inactive). The GI50 (HOP-92) was > 100 µM (inactive), the GI50 (HT-29) was > 100 µM (inactive) and the GI50 (Hs-578T) was > 100 µM (inactive). The GI50 (K562) was > 100 µM (inactive), the GI50 (KM12) was > 100 µM (inactive) and the GI50 (LOX IMVI) was > 100 µM (inactive). For the same compound, the GI50 (M14) was > 100 µM (inactive), the GI50 (MCF7) was > 100 µM (inactive) and the GI50 (MDA-MB-435) was > 100 µM (inactive). For the same compound, the GI50 (Malme-3M) was > 100 µM (inactive), the GI50 (NCI-H226) was > 100 µM (inactive) and the GI50 (NCI-H23) was > 100 µM (inactive). The GI50 (NCI-H460) was > 100 µM (inactive), the GI50 (NCI-H522) was > 100 µM (inactive) and the GI50 (NCI/ADR-RES) was > 100 µM (inactive). For the same compound, the GI50 (OVCAR-3) was > 100 µM (inactive), the GI50 (OVCAR-4) was > 100 µM (inactive) and the GI50 (OVCAR-5) was > 100 µM (inactive). For the same compound, the GI50 (OVCAR-8) was > 100 µM (inactive), the GI50 (PC-3) was > 100 µM (inactive) and the GI50 (RPMI-8226) was < 0.01 µM (active). The GI50 (SF-268) was > 100 µM (inactive), the GI50 (SF-295) was > 100 µM (inactive) and the GI50 (SF-539) was > 100 µM (inactive). For the same compound, the GI50 (SK-MEL-28) was > 100 µM (inactive), the GI50 (SK-MEL-2) was > 100 µM (inactive) and the GI50 (SK-OV-3) was > 100 µM (inactive). For the same compound, the GI50 (SN12C) was > 100 µM (inactive), the GI50 (SNB-19) was > 100 µM (inactive) and the GI50 (SNB-75) was > 100 µM (inactive). The GI50 (SR) was 84.9 µM (inactive), the GI50 (SW-620) was > 100 µM (inactive) and the GI50 (T47D) was > 100 µM (inactive). The GI50 (TK-10) was > 100 µM (inactive), the GI50 (U-251) was > 100 µM (inactive) and the GI50 (UACC-257) was > 100 µM (inactive). The GI50 (UACC-62) was > 100 µM (inactive).

For COc1cc(/C=C2\CCC(C)C3=C2N=c2s/c(=C/c4ccc(Cl)cc4)c(=O)n2C3c2cc(OC)c(OC)c(OC)c2)cc(OC)c1OC (stereo not given), the GI50 (786-0) was > 100 µM (inactive), the GI50 (A498) was > 100 µM (inactive) and the GI50 (A549) was > 100 µM (inactive). The GI50 (ACHN) was > 100 µM (inactive), the GI50 (CAKI-1) was > 100 µM (inactive) and the GI50 (CCRF-CEM) was > 100 µM (inactive). For the same compound, the GI50 (DU-145) was > 100 µM (inactive), the GI50 (EKVX) was > 100 µM (inactive) and the GI50 (HCT-116) was > 100 µM (inactive). For the same compound, the GI50 (HCT-15) was greater than 100 µM, the GI50 (HL-60) was > 100 µM (inactive) and the GI50 (HOP-62) was > 100 µM (inactive). For the same compound, the GI50 (HOP-92) was > 100 µM (inactive), the GI50 (HT-29) was > 100 µM (inactive) and the GI50 (Hs-578T) was > 100 µM (inactive). The GI50 (IGROV-1) was 20.5 µM (inactive), the GI50 (K562) was > 100 µM (inactive) and the GI50 (KM12) was > 100 µM (inactive). For the same compound, the GI50 (LOX IMVI) was > 100 µM (inactive), the GI50 (M14) was > 100 µM (inactive) and the GI50 (MCF7) was > 100 µM (inactive). For the same compound, the GI50 (MDA-MB-231) was > 100 µM (inactive), the GI50 (MDA-MB-435) was > 100 µM (inactive) and the GI50 (MDA-N) was > 100 µM (inactive). The GI50 (MOLT-4) was > 100 µM (inactive), the GI50 (OVCAR-4) was > 100 µM (inactive) and the GI50 (OVCAR-5) was > 100 µM (inactive). The GI50 (OVCAR-8) was > 100 µM (inactive), the GI50 (PC-3) was > 100 µM (inactive) and the GI50 (RPMI-8226) was > 100 µM (inactive). The GI50 (RXF 393) was > 100 µM (inactive), the GI50 (SF-268) was > 100 µM (inactive) and the GI50 (SK-MEL-28) was > 100 µM (inactive). For the same compound, the GI50 (SK-MEL-2) was > 100 µM (inactive), the GI50 (SK-MEL-5) was > 100 µM (inactive) and the GI50 (SK-OV-3) was > 100 µM (inactive). For the same compound, the GI50 (SN12C) was > 100 µM (inactive), the GI50 (SNB-19) was > 100 µM (inactive) and the GI50 (SNB-75) was 0.277 µM (active). For the same compound, the GI50 (SR) was > 100 µM (inactive), the GI50 (SW-620) was > 100 µM (inactive) and the GI50 (TK-10) was > 100 µM (inactive). For the same compound, the GI50 (U-251) was > 100 µM (inactive), the GI50 (UACC-257) was > 100 µM (inactive) and the GI50 (UACC-62) was > 100 µM (inactive). The GI50 (UO-31) was > 100 µM (inactive).
